Laboratory results reported in US20250019772A1, “Method and System of Augmenting Cancer Therapy” (UNIVERSITY OF MIAMI, priority 2023, published 2025).

Tests used:
[1] = system: CD11+ BMDC's; assay: Phagocytosis of irradiated MEFs treated with autophagy inhibitors by BMDC's (qPCR IFNβ1, Cxcl10); type: cell-based, mouse; conditions: BafA1 50 nM; 3-MA 2.5 mM
[2] = system: ISD (dsDNA); assay: Binding of CCL5 to DNA (Picogreen, EMSA); conditions: ISD 10 μg/mL
Description: SIEVES were isolated from irradiated (X-ray at 50 Gy for 3 days) WT, SKO, or CCL5 MEFs as well as B16-WT, B16-SKO or B16-CCL5KO cells by centrifugation. (A) Immunoblot analysis of centrifuged fractions using antibodies to STING, CD81, LC3, and Lamin A/C. (B) Size distribution evaluation of endosomal vesicles isolated from B16-WT. B16-SKO, and B16-CCL5 KO cells following irradiation with X-rays at 50 Gy. (C) Evaluation of number of endosomal vesicles in (B). (D) Immunoblotting analysis of endosomal/exosomal markers in endosomal vesicles in (B). (E) cGAMP ELISA analysis of WT DC. SKO DC, and CKO BMDC's treated with 30 μg of SIEVE's isolated from MEF WT, MEF SKO, MEF CKO or MEF CCL5 KO. (F) qPCR analysis of Cxcl10 in WT DC treated with SIEVE's from (E). […] (G) Tumor volumes were measured every other day for 2 weeks. […]
(B) B16-WT. […] DNA was purified with phenol-chloroform and CCL5 bound ISD was analyzed by qPCR analysis. (C) DNA in SIEVE's isolated from MEF-WT, SKO and CCL5 KO with or without X-ray at 50 Gy were measured by Nanodrop, Picogreen staining and visualized by agarose gel electrophoresis and dot blot analysis, according to an embodiment of the present invention; and
ISD90 was premixed with CCL5 and negative control molecules at different concentration in 100 μL and analyzed by a fluorimeter after staining with Picogreen. […]

[3] = system: DNase II; assay: Nuclease protection assay of Ccl5-DNA complex; type: biochemical; conditions: 1 unit DNase II, 37° C., 20 mins
[4] = system: WT macrophages (WTØ); assay: Phagocytosis of irradiated cells by WT macrophages (WTØ), Cxcl10 qPCR, with CCL5, CCL5 antibody or CCR inhibitors; type: cell-based, mouse; conditions: exogenously added recombinant CCL5 100 ng/mL 2 h, irradiated B16 cells 50 Gy
Description: (B) B16-WT or B16-SKO cells were irradiated using X-rays at 50 Gy for 3 days. 50 μL of the conditioned media from the cells was added to WTØ followed by adding the irradiated B16-WT and B16-SKO cells with the treated APC's for phagocytosis analysis. qPCR analysis was performed for Cxcl10 expression. (C) qPCR analysis of Cxcl10 in WTØ following the phagocytosis of irradiated MEF-WT cells in the presence of CCL5 antibody or IgG control (1 μg) at 100 ng/mL for 2 h prior to the phagocytosis. (D) MEF-WT cells were treated with a cocktail of 100 nM CCR inhibitors (Bx471, SB297006, AZD2098 and Maraviroc). The MEF-WT cells treated with the inhibitors (CCRi) were fed to WTØ for 6 h and Cxcl10 expression examined. (E) MEF WT, SKO or CCL5 KO were transfected with 3 μg/mL ISD for 6 h followed by measuring Ifnβ1, Cxcl10 or Ccl5 expression by qPCR analysis. (F) MEF WT, SKO or CCL5 KO were transfected with 3 μg/mL ISD for 6 h and then examined for STING activity by immunoblotting analysis. […] Immunofluorescence to detect STING translocation was monitored by confocal microscope, according to an embodiment of the present invention; […]
Macrophages were washed with 0.02% EDTA/PBS twice followed by incubation with 0.02% EDTA/PBS at 37C incubator for 10 mins. […] Percentage of phagocytosed cells were assessed by flow cytometry using a LSRII instrument (Becton Dickinson, USA).

Row | association of Ccl5 with DNA [2] | Compound | immunogenicity of irradiated MEF cells (ability to activate APC's) [1] | protection against DNA degradation by DNaseII [3] | rescue of immunogenicity of Ccl5 KO or STING KO cells [4]
1 |  | CO/C1=C\C(C)=C\[C@@H](C)[C@@H](O)[C@@H](C)C/C(C)=C/C=C/[C@H](OC)[C@@H]([C@@H](C)[C@@H](O)[C@H](C)[C@@]2(O)C[C@@H](O)[C@H](C)[C@@H](C(C)C)O2)OC1=O [BafA1, bafilomycin A1] | suppressed the immunogenicity |  | 
2 | associated with | Ccl5: recombinant CCL5 protein, exogenously added chemokine |  | conferred protection against DNA degradation | did not appear to significantly rescue the immunogenicity
3 |  | Cn1cnc(N)c2ncnc1-2 [3-MA, 3-Methyladenine] | suppressed the immunogenicity |  | 
